By IC50 is commonly meant the concentration that inhibits the measured activity by half.

SMILES strings stand for the structures. Like-named read-outs stand apart in the source and are kept apart here.

For one assay, the target named is T1, Recombinant human Src (Homo sapiens, UniProt P12931).
T1 construct: made in house; host or cells: baculovirus-insect cell system
The assay can be described thus: Src tyrosine kinase activity assay with poly E4Y and 32P-ATP. It is filed as biochemical. Put shortly: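 Src expressed in baculovirus-insect cells; Csk and FGFr expressed as GST fusions in E. coli. Kinase activity measured as 32P transfer from γ32P-ATP (0.2 mM, 0.2-0.4 mCi/μmol) to poly E4Y in 0.15 M EPPS-NaOH pH 8.0, 6 mM MgCl2, 10% glycerol, 0.1% Triton X-100; in ATP-variation runs (0-250 μM), poly E4Y fixed at 150 μg/ml.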

A further assay addresses T2, Recombinant Csk (Homo sapiens, UniProt P41240).
T2 construct: GST ('glutathione-5-transferase' [sic]); made in house; host or cells: E. coli (pGEX expression vector)
As to the kind of experiment: Csk tyrosine kinase activity assay with poly E4Y and 32P-ATP. The format is biochemical. The settings on record: NI = no inhibition. How it is done: Recombinant human Src was expressed using the baculovirus-insect cell system and purified as published (Budde et al., 1993 and 2000). Recombinant Csk and the FGF receptor (FGFr) were expressed as […] fusion proteins using the pGEX expression vector and E. coli, and purified as described (Sun & Budde, 1995).
The tyrosine kinase activity of Src, Csk and FGFr was determined using poly E4Y and ^32P-ATP. Briefly, enzymes were assayed in a reaction mixture […] consisting of 0.15 M EPPS-NaOH (pH 8.0) with 6 mM MgCl2, 0.2 mM γ^32P-ATP (0.2-0.4 mCi/μmol), 10% glycerol, 0.1% Triton X-100, and poly E4Y. Poly E4Y is a synthetic peptide whose phosphorylation is measured in this assay by the addition of the radioactively labeled phosphate from the ATP (Budde et al., 1995). […] When ATP was varied (0, 50, 100 and 250 μM), poly E4Y was kept constant at 150 μg/ml.

Setting [1] is: poly E4Y, 32P-ATP, NI = no inhibition, read-out: IC50 Value Src.
[2] abbreviates: especially good inhibitors of Src, screening assay 50 μg/ml poly E4Y, 0.2 mM ATP, read-out: IC50 (inhibitors of Src).

T1 sequence (P12931 whole entry): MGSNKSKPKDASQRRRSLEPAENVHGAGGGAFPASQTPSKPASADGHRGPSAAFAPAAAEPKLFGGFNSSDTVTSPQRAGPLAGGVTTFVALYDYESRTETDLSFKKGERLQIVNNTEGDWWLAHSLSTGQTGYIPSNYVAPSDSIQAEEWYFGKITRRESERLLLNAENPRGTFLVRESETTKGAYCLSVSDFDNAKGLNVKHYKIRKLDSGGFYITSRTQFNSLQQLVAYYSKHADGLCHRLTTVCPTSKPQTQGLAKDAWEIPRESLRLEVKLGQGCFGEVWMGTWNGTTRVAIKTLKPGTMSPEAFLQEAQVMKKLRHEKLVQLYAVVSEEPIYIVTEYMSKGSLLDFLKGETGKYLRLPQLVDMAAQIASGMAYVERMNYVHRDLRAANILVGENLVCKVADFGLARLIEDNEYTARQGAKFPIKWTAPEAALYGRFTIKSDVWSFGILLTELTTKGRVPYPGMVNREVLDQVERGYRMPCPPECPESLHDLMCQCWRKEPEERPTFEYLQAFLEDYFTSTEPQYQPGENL
T2 sequence (P41240 whole entry, species assumed): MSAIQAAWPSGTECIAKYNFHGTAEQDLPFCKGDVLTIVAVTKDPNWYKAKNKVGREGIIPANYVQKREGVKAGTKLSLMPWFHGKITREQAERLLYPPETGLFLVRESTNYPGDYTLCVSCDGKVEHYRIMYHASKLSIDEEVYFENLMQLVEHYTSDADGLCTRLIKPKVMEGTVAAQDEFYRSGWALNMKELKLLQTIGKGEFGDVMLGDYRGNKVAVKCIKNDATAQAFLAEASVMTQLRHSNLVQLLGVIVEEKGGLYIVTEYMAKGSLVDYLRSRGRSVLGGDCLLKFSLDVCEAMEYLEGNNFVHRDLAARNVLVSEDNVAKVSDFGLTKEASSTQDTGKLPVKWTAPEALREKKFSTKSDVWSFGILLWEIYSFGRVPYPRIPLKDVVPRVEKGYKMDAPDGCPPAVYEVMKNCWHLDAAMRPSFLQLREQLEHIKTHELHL

`COc1ccc(C=NNc2ncnc3c(CO)c(-c4ccc(N)cc4)sc23)cc1O` [Compound 58, 3-Hydroxy-4-methoxybenzaldehyde (6-(4-aminophenyl)-7-hydroxymethylthieno[3,2-d]pyrimidin-4-yl)hydrazone]: the figures for the IC50 on Recombinant human Src (setting [1]) and at Recombinant Csk were 43 nM and 12000 nM, respectively.

`CCOc1ccccc1-c1sc2c(NN=Cc3sccc3C)ncnc2c1O` [Compound 124, 3-Methyl-2-thiophenecarboxaldehyde (6-(2-ethoxyphenyl)-7-hydroxythieno[3,2-d]pyrimidin-4-yl)hydrazone]: the values for the IC50 at Recombinant human Src (setting [1]) and on Recombinant Csk were 9 nM and 15000 nM, respectively.

Take `CCOc1ccccc1-c1sc2c(NN=Cc3ccc(OC)c(O)c3)ncnc2c1CO` [Compound 33, 3-Hydroxy-4-methoxybenzaldehyde (7-hydroxymethyl-6-(2-ethoxyphenyl)thieno[3,2-d]pyrimidin-4-yl)hydrazone]: the IC50 at Recombinant human Src (setting [1]) amounted to 11 nM; on Recombinant Csk, 10000 nM.

For the compound `CCOc1ccccc1-c1sc2c(NN=Cc3ccncc3)ncnc2c1O` [Compound 112, 4-Pyridinecarboxaldehyde (6-(2-ethoxyphenyl)-7-hydroxythieno[3,2-d]pyrimidin-4-yl)hydrazone], the figures for the IC50 on Recombinant human Src (setting [1]) and at Recombinant Csk were 4 nM and 7200 nM, respectively.

`Cc1c(-c2cccc(C(N)=NO)c2)sc2c(NN=Cc3cccnc3)ncnc12` [Compound 49, 3-Pyridinecarboxaldehyde (6-(N-hydroxy-benzamidin-3-yl)-7-methylthieno[3,2-d]pyrimidin-4-yl)hydrazone]: the IC50 on Recombinant human Src (setting [1]) stood at 4.1 nM; at Recombinant Csk, 124000 nM.

For the compound `CCOc1ccccc1-c1sc2c(NN=Cc3[nH]cnc3C)ncnc2c1O` [Compound 117, 4-Methyl-5-imidazolecarboxaldehyde (6-(2-ethoxyphenyl)-7-hydroxythieno[3,2-d]pyrimidin-4-yl)hydrazone], the IC50 on Recombinant human Src (setting [1]) worked out at 5 nM; at Recombinant Csk, 5500 nM.

Turning to `Cc1c(-c2ccc(C(N)=NO)cc2)sc2c(NN=Cc3cccnc3)ncnc12` [Compound 50, 3-Pyridinecarboxaldehyde (6-(N-hydroxy-benzamidin-4-yl)-7-methylthieno[3,2-d]pyrimidin-4-yl)hydrazone], the values for the IC50 at Recombinant human Src (setting [1]) and on Recombinant Csk were 25 nM and 42000 nM, respectively.

As to `CCOc1ccccc1-c1sc2c(NN=Cc3ccc(O)cc3)ncnc2c1O` [Compound 104, 4-Hydroxybenzaldehyde (6-(2-ethoxyphenyl)-7-hydroxythieno[3,2-d]pyrimidin-4-yl)hydrazone], the IC50 is no more than 2000 nM on Recombinant human Src (setting [2]), 1.6 nM on Recombinant human Src (setting [1]) and 980 nM at Recombinant Csk.

As for `COc1ccc(C=NNc2ncnc3c(C)c(-c4ccc(N(C)C)cc4)sc23)cc1O` [Compound 42, 3-Hydroxy-4-methoxybenzaldehyde (6-(4-N,N-dimethylaminophenyl)-7-methylthieno[3,2-d]pyrimidin-4-yl)hydrazone], the IC50 is no more than 2000 nM on Recombinant human Src (setting [2]), 72 nM on Recombinant human Src (setting [1]) and 460 nM at Recombinant Csk.

Turning to `CCOc1ccccc1-c1sc2c(NN=Cc3ccc(OC)c(OCCN4CCOCC4)c3)ncnc2c1C` [Compound 52, 4-Methoxy-3-(2-(morpholin-4-yl)-ethoxy)-benzaldehyde (6-(2-ethoxyphenyl)-7-methylthieno[3,2-d]pyrimidin-4-yl)hydrazone], the IC50 at Recombinant human Src (setting [1]) was found to be 1.1 nM; at Recombinant Csk, 46000 nM.

`CCOc1ccccc1-c1sc2c(NN=Cc3cc(OC)c(O)c(OC)c3)ncnc2c1O` [Compound 96, 3,5-Dimethoxy-4-hydroxybenzaldehyde (6-(2-ethoxyphenyl)-7-hydroxythieno[3,2-d]pyrimidin-4-yl)hydrazone]: the IC50 at Recombinant human Src (setting [2]) is no more than 2000 nM; at Recombinant human Src (setting [1]) it was 0.73 nM; on Recombinant Csk, 580 nM.

For `COc1ccc(C=NNc2ncnc3c(C#N)c(-c4ccc(N)cc4)sc23)cc1O` [compound 59], the results for the IC50 at Recombinant human Src (setting [1]) and at Recombinant Csk were 16 nM and 10000 nM, respectively.

With `COc1ccc(C=NNc2ncnc3c(C)c(-c4ccc([N+](=O)[O-])cc4)sc23)cc1O` [Compound 39, 3-Hydroxy-4-methoxybenzaldehyde (6-(4-nitrophenyl)-7-methylthieno[3,2-d]pyrimidin-4-yl)hydrazone], the IC50 came out at 160 nM at Recombinant human Src (setting [1]) and 23000 nM on Recombinant Csk.

Consider `CCOc1ccccc1-c1sc2c(NN=Cc3ccc(OC)c(O)c3)ncnc2c1O` [Compound 37, 3-Hydroxy-4-methoxybenzaldehyde (6-(2-ethoxyphenyl)-7-hydroxythieno[3,2-d]pyrimidin-4-yl)hydrazone], for which the IC50 is no more than 2000 nM on Recombinant human Src (setting [2]), 2.6 nM on Recombinant human Src (setting [1]) and 1280 nM at Recombinant Csk.

`CCOc1ccccc1-c1sc2c(NN=Cc3cccc(O)c3)ncnc2c1O` [Compound 105, 3-Hydroxybenzaldehyde (6-(2-ethoxyphenyl)-7-hydroxythieno[3,2-d]pyrimidin-4-yl)hydrazone]: the IC50 on Recombinant human Src (setting [2]) was no more than 2000 nM; on Recombinant human Src (setting [1]) it was 4.3 nM; at Recombinant Csk, 900 nM.

`COc1ccc(C=NNc2ncnc3c(C)c(-c4ccc(C(N)=NO)cc4)sc23)cc1O` [Compound 51, 3-Hydroxy-4-methoxybenzaldehyde (6-(N-hydroxy-benzamidin-4-yl)-7-methylthieno[3,2-d]pyrimidin-4-yl)hydrazone]: the IC50 on Recombinant human Src (setting [1]) was determined as 11 nM; at Recombinant Csk it was 47000 nM.

`CCOc1ccccc1-c1sc2c(NN=Cc3ccc(C(=O)O)cc3)ncnc2c1C#N` [compound 68]: the IC50 on Recombinant human Src (setting [1]) came to 1.4 nM; at Recombinant Csk it was 26000 nM.

Turning to `C=Cc1c(-c2ccccc2OCC)sc2c(NN=Cc3ccc(OC)c(O)c3)ncnc12` [Compound 34, 3-Hydroxy-4-methoxybenzaldehyde (6-(2-ethoxyphenyl)-7-vinylthieno[3,2-d]pyrimidin-4-yl)hydrazone], the IC50 at Recombinant human Src (setting [2]) was no more than 2000 nM; at Recombinant human Src (setting [1]), 39 nM; on Recombinant Csk, 1350 nM.

For the compound `CCOc1ccccc1-c1sc2c(NN=Cc3ccc(OCCN4CCOCC4)c(OC)c3)ncnc2c1C` [Compound 54, 3-Methoxy-4-(2-(morpholin-4-yl)-ethoxy)-benzaldehyde (6-(2-ethoxyphenyl)-7-methylthieno[3,2-d]pyrimidin-4-yl)hydrazone], the IC50 on Recombinant human Src (setting [1]) came out at 1.4 nM; on Recombinant Csk, 110000 nM.

Consider `COc1ccc(C=NNc2ncnc3c(C)c(-c4cccc(C(N)=NO)c4)sc23)cc1O` [Compound 45], for which the results for the IC50 at Recombinant human Src (setting [1]) and on Recombinant Csk were 19 nM and 26800 nM, respectively.

As to `CCOc1ccccc1-c1sc2c(NN=Cc3cccc(C(=O)O)c3)ncnc2c1O` [Compound 116, 3-Carboxybenzaldehyde (6-(2-ethoxyphenyl)-7-hydroxythieno[3,2-d]pyrimidin-4-yl)hydrazone], the IC50 came out at 5 nM on Recombinant human Src (setting [1]) and 7100 nM on Recombinant Csk.

On to `Cc1c(-c2cccc(C(N)=O)c2)sc2c(NN=Cc3ccc(C(=O)O)cc3)ncnc12` [Compound 22, 4-Carboxybenzaldehyde (6-(3-aminocarbonylphenyl)-7-methylthieno[3,2-d]pyrimidin-4-yl)hydrazone], for which the IC50 on Recombinant human Src (setting [1]) turned out to be 41 nM.

In the case of `CCOc1ccccc1-c1sc2c(NN=Cc3ncc[nH]3)ncnc2c1C#N` [compound 95], at Recombinant human Src (setting [1]), the IC50 worked out at 25 nM.

Consider `CCOc1ccccc1-c1sc2c(NN=Cc3ccsc3)ncnc2c1O` [Compound 93, 3-Thiophenecarboxaldehyde (6-(2-ethoxyphenyl)-7-hydroxythieno[3,2-d]pyrimidin-4-yl)hydrazone], for which the IC50 at Recombinant human Src (setting [1]) worked out at 2.8 nM.

These data come from US20060004002A1 (priority 2004, published 2006).
